What follows are substances tested on CD53 (assay: siRNA dose response, CD53 mRNA knockdown, bDNA Assay). Settings: THP-1, 24 hr.
Assay type: cell-based, human
Description: (§1) Dose response curves for siRNAs were generated in vitro using a variety of cell lines according to Table 4.
(§2) Briefly, cells were seeded in 96-well plates and reverse transfected with siRNA, Lipofectamine® 2000 (0.5 uL/well; ThermoFisher), and, in some cases, a reporter plasmid (50 ng/well). The reporter plasmid (psiCHECK™-2, Promega) encoded both firefly luciferase and the gene of interest fused to renilla luciferase; silencing of the gene of interest results in proportional silencing of renilla luciferase but leaves firefly luciferase unaffected as an internal control.
(§3) After 24 hr incubation at 37° C., mRNA knockdown was measured using an endpoint assay. For targets without a reporter plasmid, a branched DNA (bDNA) assay was performed according to the manufacturer's instructions (QuantiGene® Singleplex Gene Expression Assay, ThermoFisher) to measure both the target gene and GAPDH (housekeeping gene) mRNA. Data are plotted as siRNA concentration (nM) vs. remaining mRNA (ratio of target gene to GAPDH, normalized to mock siRNA-transfected cells). For targets with a reporter plasmid, a Dual-Glo® Luciferase Assay was performed according to the manufacturer's instructions (Promega) to measure firefly and renilla luciferase expression. Data are plotted as siRNA concentration (nM) vs. remaining mRNA (ratio of renilla to firefly luminescence, normalized to mock siRNA-transfected cells).
(§4) For all dose response curves, a 4-parameter logistic model was applied to determine the IC50 of each siRNA sequence (Table 5 and FIG. 2). Data shown in Table 5 and FIG. 2 represent the mean of quadruplicates, +/−standard deviation.
Substance “XD-09201: siRNA targeting CD53 (sense 5'-gcAuGAGuAGcuugAAAcudTsdT-3'; antisense 5'-AGUUUcAAGCuACUcAUGCdTsdT-3'; as printed in the source, key not given here)” has an IC50 of 0.067 nM. Substance “XD-09203: siRNA targeting CD53 (sense 5'-gcAuGGGcucuAucAAGGAdTsdT-3'; antisense 5'-UCCUUGAuAGAGCCcAUGCdTsdT-3'; as printed in the source, key not given here)” has an IC50 of 0.178 nM. “XD-09205: siRNA targeting CD53 (sense 5'-acuAAuAucuGAGcAucuudTsdT-3'; antisense 5'-AAGAUGCUcAGAuAUuAGUdTsdT-3'; as printed in the source, key not given here)” gave an IC50 of 0.132 nM. “XD-09207: siRNA targeting CD53 (sense 5'-agGGcAAGAucucauuucAdTsdT-3'; antisense 5'-UGAAAUGAGAUCUUGCCCUdTsdT-3'; as printed in the source, key not given here)” was tested, and the IC50 was 0.038 nM. Substance “XD-09208: siRNA targeting CD53 (sense 5'-uuuAuuAGAGGGccuuAuudTsdT-3'; antisense 5'-AAuAAGGCCCUCuAAuAAAdTsdT-3'; as printed in the source, key not given here)” has an IC50 of 0.162 nM. “XD-09209: siRNA targeting CD53 (sense 5'-auuGAuGuGuucuaAGucudTsdT-3'; antisense 5'-AGACUuAGAAcAcAUcAAUdTsdT-3'; as printed in the source, key not given here)” showed an IC50 of 0.041 nM.

The substances below were run on LRRC25 (assay: siRNA dose response, LRRC25 mRNA knockdown, Dual-Glo Luciferase Assay). Settings: Hepa1-6 + reporter plasmid, 24 hr.
Assay type: cell-based, human
Description: as §1, §2, §3, §4
In the case of “XD-09250: siRNA targeting LRRC25 (sense 5'-gccAGAGGAAcGccAGcGAdTsdT-3'; antisense 5'-UCGCUGGCGUUCCUCUGGCdTsdT-3'; as printed in the source, key not given here)”, the IC50 is reported as 15 nM. In the case of “XD-09251: siRNA targeting LRRC25 (sense 5'-gccGucGcuuuuccAGcAudTsdT-3'; antisense 5'-AUGCUGGAAAAGCGACGGCdTsdT-3'; RNA with 2'-O-methyl and phosphorothioate modifications, case key not given here, as printed in the source, key not given here)”, the IC50 is reported as 2.77 nM. Substance “XD-09256: siRNA targeting LRRC25 (sense 5'-ccGAcuAuGAGAAcAuGuudTsdT-3'; antisense 5'-AAcAUGUUCUcAuAGUCGGdTsdT-3'; as printed in the source, key not given here)” has an IC50 of 0.601 nM. “XD-09258: siRNA targeting LRRC25 (sense 5'-caAuAAAuGcuucgAGGcudTsdT-3'; antisense 5'-AGCCUCGAAGcAUUuAUUGdTsdT-3'; RNA with 2'-O-methyl and phosphorothioate modifications, case key not given here, as printed in the source, key not given here)” showed an IC50 of 0.033 nM. “XD-09259: siRNA targeting LRRC25 (sense 5'-cuucGAGGcuGAugAGGcudTsdT-3'; antisense 5'-AGCCUcAUcAGCCUCGAAGdTsdT-3'; RNA with 2'-O-methyl and phosphorothioate modifications, case key not given here, as printed in the source, key not given here)” was tested, and the IC50 was 0.293 nM.

These substances were tested on DOCK2 (assay: siRNA dose response, DOCK2 mRNA knockdown, bDNA Assay). Settings: THP-1, 24 hr.
Assay type: cell-based, human
Description: as §1, §2, §3, §4
“XD-09691: siRNA targeting DOCK2 (sense 5'-ggGGAuAccucAuaAAGcAdTsdT-3'; antisense 5'-UGCUUuAUGAGGuAUCCCCdTsdT-3'; RNA with 2'-O-methyl and phosphorothioate modifications, case key not given here, as printed in the source, key not given here)” was tested, and the IC50 was 11.7 nM. “XD-09694: siRNA targeting DOCK2 (sense 5'-ccAucuGcGAuucauGuuudTsdT-3'; antisense 5'-AAAcAUGAAUCGcAGAUGGdTsdT-3'; RNA with 2'-O-methyl and phosphorothioate modifications, case key not given here, as printed in the source, key not given here)” showed an IC50 of 0.403 nM.

Reference: US20210189342A1, “COMPOSITIONS AND METHODS FOR MODULATING MONOCYTE AND MACROPHAGE INFLAMMATORY PHENOTYPES AND IMMUNOTHERAPY USES THEREOF” (Verseau Therapeutics, Inc., priority 2018, published 2021)
